Columns and labels:
[1] = Molar enthalpy of transition or fusion; settings: Crystal
[2] = molar heat capacity at saturation pressure

Cc1ccc2ccccc2n1 [2-methylquinoline]
Settings | mass density [kg/m3] | molar heat capacity [J/K/mol] | vapor or sublimation pressure [kPa]
319.99 K, Liquid, Inclined piston gauge | – | – | 0.0315
329.98 K, Liquid, Inclined piston gauge | – | – | 0.063
339.99 K, Liquid, Inclined piston gauge | – | – | 0.1198
349.98 K, Liquid, Inclined piston gauge | – | – | 0.2174
364.98 K, Liquid, Inclined piston gauge | – | – | 0.4962
374.98 K, Liquid, Inclined piston gauge | – | – | 0.8233
384.97 K, Liquid, Inclined piston gauge | – | – | 1.323
394.24 K, Liquid, Twin ebulliometer | – | – | 2
394.97 K, Liquid, Inclined piston gauge | – | – | 2.066
404.97 K, Liquid, Inclined piston gauge | – | – | 3.141
411.02 K, Liquid, Twin ebulliometer | – | – | 4
418.53 K, Liquid, Twin ebulliometer | – | – | 5.333
429.68 K, Liquid, Twin ebulliometer | – | – | 7.999
438.05 K, Liquid, Twin ebulliometer | – | – | 10.67
444.81 K, Liquid, Twin ebulliometer | – | – | 13.33
451.84 K, Liquid, Twin ebulliometer | – | – | 16.66
457.68 K, Liquid, Twin ebulliometer | – | – | 19.93
465.36 K, Liquid, Twin ebulliometer | – | – | 25.02
473.1 K, Liquid, Twin ebulliometer | – | – | 31.18
480.89 K, Liquid, Twin ebulliometer | – | – | 38.56
488.72 K, Liquid, Twin ebulliometer | – | – | 47.38
496.61 K, Liquid, Twin ebulliometer | – | – | 57.82
504.55 K, Liquid, Twin ebulliometer | – | – | 70.12
512.53 K, Liquid, Twin ebulliometer | – | – | 84.53
520.57 K, Liquid, Twin ebulliometer | – | – | 101.33
528.66 K, Liquid, Twin ebulliometer | – | – | 120.79
536.8 K, Liquid, Twin ebulliometer | – | – | 143.25
544.98 K, Liquid, Twin ebulliometer | – | – | 169.02
553.22 K, Liquid, Twin ebulliometer | – | – | 198.49
561.5 K, Liquid, Twin ebulliometer | – | – | 232.02
569.83 K, Liquid, Twin ebulliometer | – | – | 270.02
762.9 K, Gas, Measured as part of TC determination by DSC | 163.3 | – | –
773.9 K, Liquid, Measured as part of TC determination by DSC | 410.8 | – | –
775.2 K, Gas, Measured as part of TC determination by DSC | 236.6 | – | –
775.9 K, Liquid, Measured as part of TC determination by DSC | 355.4 | – | –
777.9 K, Gas, Measured as part of TC determination by DSC | 292.9 | – | –
[2], 460 K, Liquid | – | 291.16 | –
[2], 480 K, Liquid | – | 299.73 | –
[2], 500 K, Liquid | – | 308.3 | –
[2], 520 K, Liquid | – | 316.87 | –
[2], 540 K, Liquid | – | 325.39 | –
[2], 560 K, Liquid | – | 333.78 | –
[2], 580 K, Liquid | – | 341.97 | –
[2], 600 K, Liquid | – | 349.93 | –
[2], 620 K, Liquid | – | 357.61 | –
[2], 640 K, Liquid | – | 365.01 | –
[2], 660 K, Liquid | – | 372.23 | –
[2], 680 K, Liquid | – | 379.58 | –
[2], 700 K, Liquid | – | 387.75 | –

Settings | Critical temperature, Liquid [K] | mass density, 323.14 K [kg/m3] | mass density, 348.14 K [kg/m3] | mass density, 373.12 K [kg/m3] | mass density, 398.12 K [kg/m3] | mass density, 423.11 K [kg/m3] | mass density, 448.11 K [kg/m3] | mass density, 473.11 K [kg/m3] | mass density, 498.11 K [kg/m3] | mass density, 523.11 K [kg/m3]
DTA | 778 | – | – | – | – | – | – | – | – | –
Liquid | – | 1035.2 | 1015.9 | 996.1 | 973.9 | 952.8 | 931.9 | 910.8 | 888.8 | 865.1

Settings | Molar enthalpy of transition or fusion [kcal/mol] | Triple point temperature [K]
Crystal | – | 270.48
[1] | 2.992 | –

molar heat capacity [J/K/mol], [2], Vacuum adiabatic calorimetry
Settings | Crystal | Liquid
5 K | 0.46 | –
5.565 K | 0.62 | –
6.404 K | 0.956 | –
7.354 K | 1.4 | –
8.354 K | 1.96 | –
9.372 K | 2.64 | –
10 K | 3.14 | –
10.39 K | 3.48 | –
11.53 K | 4.41 | –
12.8 K | 5.65 | –
14.21 K | 7.09 | –
15.75 K | 8.78 | –
17.46 K | 10.78 | –
19.36 K | 13.04 | –
20 K | 13.79 | –
21.49 K | 15.56 | –
23.83 K | 18.39 | –
26.43 K | 21.5 | –
29.31 K | 24.82 | –
30 K | 25.6 | –
32.52 K | 28.38 | –
36.12 K | 32.14 | –
39.68 K | 35.64 | –
40 K | 35.96 | –
43.66 K | 39.34 | –
48.56 K | 43.53 | –
50 K | 44.72 | –
52.54 K | 46.74 | –
53.49 K | 47.45 | –
53.98 K | 47.92 | –
57.46 K | 50.56 | –
58.64 K | 51.46 | –
60 K | 52.34 | –
60.03 K | 52.29 | –
63.2 K | 54.47 | –
64.47 K | 55.29 | –
69.56 K | 58.68 | –
70 K | 58.93 | –
76.52 K | 62.82 | –
80 K | 64.8 | –
84.08 K | 67.08 | –
89.02 K | 69.74 | –
90 K | 70.27 | –
92.31 K | 71.48 | –
97.21 K | 73.97 | –
100 K | 75.42 | –
101.28 K | 76.06 | –
106.32 K | 78.59 | –
110.83 K | 80.82 | –
116.09 K | 83.37 | –
120 K | 85.27 | –
125.97 K | 88.15 | –
135.92 K | 92.98 | –
140 K | 94.96 | –
145.89 K | 97.82 | –
155.92 K | 102.78 | –
160 K | 104.8 | –
166.03 K | 107.81 | –
176.22 K | 112.93 | –
180 K | 114.86 | –
187.41 K | 118.71 | –
190.57 K | 120.24 | –
199.53 K | 125.07 | –
200 K | 125.32 | –
205.56 K | 128.27 | –
211.51 K | 131.45 | –
220 K | 135.9 | –
222.27 K | 136.99 | –
223.47 K | 137.78 | –
223.49 K | 138.03 | –
235.04 K | 144.29 | –
235.46 K | 144.65 | –
239.04 K | 146.8 | –
240 K | 147.3 | –
241.52 K | 148.31 | –
247.49 K | 151.95 | –
250 K | – | 205.2
250.7 K | 154.08 | –
251.78 K | – | 205.82
256.02 K | – | 207.51
257.75 K | 159.11 | –
259.67 K | 160.66 | –
260 K | 160.12 | 209.03
261.22 K | 161.55 | –
263.55 K | – | 210.39
270.48 K | 167.45 | 212.97
272.7 K | – | 213.77
277.13 K | – | 215.45
278.52 K | – | 216.02
280 K | – | 216.58
285.4 K | – | 218.72
286.61 K | – | 219.19
294.19 K | – | 222.16
298.15 K | – | 223.78
300 K | – | 224.52
300.52 K | – | 224.72
310.63 K | – | 228.85
320 K | – | 232.73
327.13 K | – | 235.7
340 K | – | 241.04
343.64 K | – | 242.54
360 K | – | 249.4
360.17 K | – | 249.47
376.73 K | – | 256.39
380 K | – | 257.77
393.31 K | – | 263.29
400 K | – | 266.05
409.82 K | – | 270.1
420 K | – | 274.27
426.33 K | – | 276.86
439.48 K | – | 282.23
440 K | – | 282.48

Reference: the NIST ThermoML archive (doi:10.1021/je049595u)
